{
  "source": "patent US8940662B2",
  "about": "“Methods for controlling pests” (BASF Corporation, priority 2009, dated 2015)",
  "origin": "cited, not measured here",
  "key": {"[1]": {"test_system": "termites", "settings": "general statement"}, "[2]": {"test_system": "ants", "settings": "general statement"}},
  "data": [
    {"smiles": "N#Cc1nn(-c2c(Cl)cc(C(F)(F)F)cc2Cl)c(N)c1[S+]([O-])C(F)(F)F", "note": "(racemic) [fipronil, (±)-5-amino-1-(2,6-dichloro-α,α,α-trifluoro-p-tolyl)-4-trifluoromethylsulfinylpyrazole-3-carbonitrile]", "values": [
      {"measurement": "Toxic dose to termites", "setting": "[1]", "value": 2, "unit": "nanograms per termite"},
      {"measurement": "Toxic dose to ants", "setting": "[2]", "value": "about 1 nanogram per ant"}
    ]}
  ]
}
